Measurements from ChEMBL document CHEMBL1201862, “PubChem BioAssay data set” (2004).
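1) Cells in 96-well plates. 2) Compound, 48 h, 5 concentrations. 3) Linear interpolation between surrounding doses. 4) Unreached endpoint = highest concentration. Here, GI50 denotes the concentration required for 50% inhibition of growth.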 Activity calls are given as the source filed them. No stated cut-off is given here; in the data, active = GI50 up to about 1.1 µM and inactive = higher.

Legend:
Assay in all cases: NCI-60 cell line screen, 48 h
786-0 = test system: 786-0
A498 = test system: A498
A549 = test system: A549
ACHN = test system: ACHN
BT-549 = test system: BT-549
CAKI-1 = test system: CAKI-1
CCRF-CEM = test system: CCRF-CEM
COLO 205 = test system: COLO 205
DU-145 = test system: DU-145
HCC 2998 = test system: HCC 2998
HCT-116 = test system: HCT-116
HCT-15 = test system: HCT-15
HL-60 = test system: HL-60
HOP-62 = test system: HOP-62
HOP-92 = test system: HOP-92
HT-29 = test system: HT-29
Hs-578T = test system: Hs-578T
IGROV-1 = test system: IGROV-1
K562 = test system: K562
KM12 = test system: KM12
LOX IMVI = test system: LOX IMVI
M14 = test system: M14
MCF7 = test system: MCF7
MDA-MB-231 = test system: MDA-MB-231
MDA-MB-435 = test system: MDA-MB-435
MDA-N = test system: MDA-N
MOLT-4 = test system: MOLT-4
Malme-3M = test system: Malme-3M
NCI-H23 = test system: NCI-H23
NCI-H460 = test system: NCI-H460
NCI-H522 = test system: NCI-H522
NCI/ADR-RES = test system: NCI/ADR-RES
OVCAR-3 = test system: OVCAR-3
OVCAR-4 = test system: OVCAR-4
OVCAR-5 = test system: OVCAR-5
OVCAR-8 = test system: OVCAR-8
PC-3 = test system: PC-3
RPMI-8226 = test system: RPMI-8226
SF-268 = test system: SF-268
SF-295 = test system: SF-295
SF-539 = test system: SF-539
SK-MEL-28 = test system: SK-MEL-28
SK-MEL-2 = test system: SK-MEL-2
SK-MEL-5 = test system: SK-MEL-5
SK-OV-3 = test system: SK-OV-3
SN12C = test system: SN12C
SNB-19 = test system: SNB-19
SNB-75 = test system: SNB-75
SR = test system: SR
SW-620 = test system: SW-620
T47D = test system: T47D
TK-10 = test system: TK-10
U-251 = test system: U-251
UACC-257 = test system: UACC-257
UACC-62 = test system: UACC-62
UO-31 = test system: UO-31
EKVX = test system: EKVX
NCI-H226 = test system: NCI-H226
RXF 393 = test system: RXF 393

Question: How did the GI50 (786-0) turn out when `COc1cc(OC)c2nccc(NCCCN(C)C)c2c1[N+](=O)[O-]` was run?
Answer: > 100 µM (inactive)

Question: And the GI50 (A498)?
Answer: > 100 µM (inactive)

Question: And the GI50 (A549)?
Answer: > 100 µM (inactive)

Question: And the GI50 (ACHN)?
Answer: > 100 µM (inactive)

Question: And the GI50 (BT-549)?
Answer: > 100 µM (inactive)

Question: And the GI50 (CAKI-1)?
Answer: > 100 µM (inactive)

Question: What about the GI50 (CCRF-CEM) of the same compound?
Answer: > 100 µM (inactive)

Question: And the GI50 (COLO 205)?
Answer: 34.1 µM (inactive)

Question: What about the GI50 (DU-145) of the same compound?
Answer: > 100 µM (inactive)

Question: And the GI50 (HCC 2998)?
Answer: > 100 µM (inactive)

Question: And the GI50 (HCT-116)?
Answer: 62.4 µM (inactive)

Question: And the GI50 (HCT-15)?
Answer: > 100 µM

Question: What about the GI50 (HL-60) of the same compound?
Answer: 39.3 µM (inactive)

Question: And the GI50 (HOP-62)?
Answer: > 100 µM (inactive)

Question: And the GI50 (HOP-92)?
Answer: 61.1 µM (inactive)

Question: And the GI50 (HT-29)?
Answer: 35 µM (inactive)

Question: What about the GI50 (Hs-578T) of the same compound?
Answer: > 100 µM (inactive)

Question: And the GI50 (IGROV-1)?
Answer: 49.5 µM (inactive)

Question: What about the GI50 (K562) of the same compound?
Answer: 87.9 µM (inactive)

Question: What about the GI50 (KM12) of the same compound?
Answer: > 100 µM (inactive)

Question: What about the GI50 (LOX IMVI) of the same compound?
Answer: > 100 µM (inactive)

Question: What about the GI50 (M14) of the same compound?
Answer: 27.3 µM (inactive)

Question: What about the GI50 (MCF7) of the same compound?
Answer: > 100 µM (inactive)

Question: What about the GI50 (MDA-MB-231) of the same compound?
Answer: > 100 µM (inactive)

Question: What about the GI50 (MDA-MB-435) of the same compound?
Answer: > 100 µM (inactive)

Question: What about the GI50 (MDA-N) of the same compound?
Answer: > 100 µM (inactive)

Question: And the GI50 (MOLT-4)?
Answer: > 100 µM (inactive)

Question: What about the GI50 (Malme-3M) of the same compound?
Answer: 55.1 µM (inactive)

Question: And the GI50 (NCI-H23)?
Answer: > 100 µM (inactive)

Question: What about the GI50 (NCI-H460) of the same compound?
Answer: 65.3 µM (inactive)

Question: And the GI50 (NCI-H522)?
Answer: > 100 µM (inactive)

Question: What about the GI50 (NCI/ADR-RES) of the same compound?
Answer: > 100 µM (inactive)

Question: And the GI50 (OVCAR-3)?
Answer: 49.3 µM (inactive)

Question: What about the GI50 (OVCAR-4) of the same compound?
Answer: > 100 µM (inactive)

Question: What about the GI50 (OVCAR-5) of the same compound?
Answer: > 100 µM (inactive)

Question: What about the GI50 (OVCAR-8) of the same compound?
Answer: > 100 µM (inactive)

Question: What about the GI50 (PC-3) of the same compound?
Answer: > 100 µM (inactive)

Question: What about the GI50 (RPMI-8226) of the same compound?
Answer: > 100 µM (inactive)

Question: What about the GI50 (SF-268) of the same compound?
Answer: > 100 µM (inactive)

Question: And the GI50 (SF-295)?
Answer: > 100 µM (inactive)

Question: What about the GI50 (SF-539) of the same compound?
Answer: 45.7 µM (inactive)

Question: And the GI50 (SK-MEL-28)?
Answer: > 100 µM (inactive)

Question: And the GI50 (SK-MEL-2)?
Answer: > 100 µM (inactive)

Question: And the GI50 (SK-MEL-5)?
Answer: > 100 µM (inactive)

Question: What about the GI50 (SK-OV-3) of the same compound?
Answer: > 100 µM (inactive)

Question: And the GI50 (SN12C)?
Answer: > 100 µM (inactive)

Question: What about the GI50 (SNB-19) of the same compound?
Answer: > 100 µM (inactive)

Question: And the GI50 (SNB-75)?
Answer: 30.9 µM (inactive)

Question: And the GI50 (SR)?
Answer: 24.7 µM (inactive)

Question: And the GI50 (SW-620)?
Answer: 95.9 µM (inactive)

Question: What about the GI50 (T47D) of the same compound?
Answer: > 100 µM (inactive)

Question: And the GI50 (TK-10)?
Answer: > 100 µM (inactive)

Question: What about the GI50 (U-251) of the same compound?
Answer: > 100 µM (inactive)

Question: And the GI50 (UACC-257)?
Answer: 58.3 µM (inactive)

Question: And the GI50 (UACC-62)?
Answer: > 100 µM (inactive)

Question: And the GI50 (UO-31)?
Answer: > 100 µM (inactive)

Question: For `CC(C)C(CC(=O)OCC(CO)OC(=O)CC(C(C)C)C(C)C)C(C)C` (stereo not given), which GI50 (786-0) is on record?
Answer: 12.4 µM (inactive)

Question: And the GI50 (A498)?
Answer: 15.3 µM (inactive)

Question: What about the GI50 (A549) of the same compound?
Answer: 11 µM (inactive)

Question: What about the GI50 (ACHN) of the same compound?
Answer: 10.9 µM (inactive)

Question: And the GI50 (BT-549)?
Answer: 19.1 µM (inactive)

Question: And the GI50 (CAKI-1)?
Answer: 12.3 µM (inactive)

Question: What about the GI50 (CCRF-CEM) of the same compound?
Answer: 5.53 µM (inactive)

Question: And the GI50 (COLO 205)?
Answer: 6.73 µM (inactive)

Question: And the GI50 (DU-145)?
Answer: 15.4 µM (inactive)

Question: And the GI50 (EKVX)?
Answer: 14 µM (inactive)

Question: And the GI50 (HCC 2998)?
Answer: 15.8 µM (inactive)

Question: And the GI50 (HCT-116)?
Answer: 16.2 µM (inactive)

Question: What about the GI50 (HCT-15) of the same compound?
Answer: 16.9 µM

Question: And the GI50 (HOP-62)?
Answer: 10.5 µM (inactive)

Question: And the GI50 (HOP-92)?
Answer: 2.75 µM (inactive)

Question: And the GI50 (HT-29)?
Answer: 17.4 µM (inactive)

Question: And the GI50 (Hs-578T)?
Answer: 4.85 µM (inactive)

Question: And the GI50 (IGROV-1)?
Answer: 19.1 µM (inactive)

Question: And the GI50 (K562)?
Answer: 6 µM (inactive)

Question: And the GI50 (KM12)?
Answer: 15.7 µM (inactive)

Question: And the GI50 (M14)?
Answer: 14.1 µM (inactive)

Question: And the GI50 (MCF7)?
Answer: 17.5 µM (inactive)

Question: And the GI50 (MDA-MB-231)?
Answer: 15.7 µM (inactive)

Question: And the GI50 (MDA-MB-435)?
Answer: 13.7 µM (inactive)

Question: What about the GI50 (MDA-N) of the same compound?
Answer: 13.6 µM (inactive)

Question: And the GI50 (MOLT-4)?
Answer: 10.1 µM (inactive)

Question: What about the GI50 (Malme-3M) of the same compound?
Answer: 15.1 µM (inactive)

Question: And the GI50 (NCI-H226)?
Answer: 16.1 µM (inactive)

Question: What about the GI50 (NCI-H23) of the same compound?
Answer: 16.6 µM (inactive)

Question: And the GI50 (NCI-H460)?
Answer: 11.8 µM (inactive)

Question: And the GI50 (NCI-H522)?
Answer: 12.6 µM (inactive)

Question: And the GI50 (NCI/ADR-RES)?
Answer: 13.5 µM (inactive)

Question: What about the GI50 (OVCAR-3) of the same compound?
Answer: 13.9 µM (inactive)

Question: And the GI50 (OVCAR-4)?
Answer: 18 µM (inactive)

Question: What about the GI50 (OVCAR-5) of the same compound?
Answer: 13 µM (inactive)

Question: What about the GI50 (PC-3) of the same compound?
Answer: 14.4 µM (inactive)

Question: What about the GI50 (RXF 393) of the same compound?
Answer: 16.6 µM (inactive)

Question: And the GI50 (SF-268)?
Answer: 14.3 µM (inactive)

Question: And the GI50 (SF-295)?
Answer: 6.27 µM (inactive)

Question: And the GI50 (SK-MEL-28)?
Answer: 16.2 µM (inactive)

Question: What about the GI50 (SK-MEL-2) of the same compound?
Answer: 18.2 µM (inactive)

Question: What about the GI50 (SK-MEL-5) of the same compound?
Answer: 11.9 µM (inactive)

Question: What about the GI50 (SK-OV-3) of the same compound?
Answer: 16.7 µM (inactive)

Question: And the GI50 (SN12C)?
Answer: 12.9 µM (inactive)

Question: What about the GI50 (SNB-19) of the same compound?
Answer: 14.7 µM (inactive)

Question: What about the GI50 (SNB-75) of the same compound?
Answer: 10.2 µM (inactive)

Question: What about the GI50 (SR) of the same compound?
Answer: 22.1 µM (inactive)

Question: And the GI50 (SW-620)?
Answer: 13.6 µM (inactive)

Question: And the GI50 (T47D)?
Answer: 16.6 µM (inactive)

Question: What about the GI50 (TK-10) of the same compound?
Answer: 13.3 µM (inactive)

Question: And the GI50 (U-251)?
Answer: 13.1 µM (inactive)

Question: And the GI50 (UACC-257)?
Answer: 17.1 µM (inactive)

Question: And the GI50 (UACC-62)?
Answer: 15.8 µM (inactive)

Question: What about the GI50 (UO-31) of the same compound?
Answer: 14.6 µM (inactive)
